Source: paper PMC1253752, “Binding of Estrogenic Compounds to Recombinant Estrogen Receptor-α: Application to Environmental Analysis” (Environmental Health Perspectives, 2004)
Read-outs that look alike come from different tables or passages of the source.

Legend:
[1] = molecular target: T1, ER-α (Homo sapiens, UniProt P03372); assay: MELN cell luciferase assay (estrogen-responsive reporter in MCF-7 cells); type: cell-based
T1 construct: we transfected ER-α–positive breast cancer MCF-7 cells; endogenous in cells; host or cells: MELN (MCF-7 stably transfected with ERE-βGlob-Luc-SVNeo)
T1 sequence (P03372 1-595): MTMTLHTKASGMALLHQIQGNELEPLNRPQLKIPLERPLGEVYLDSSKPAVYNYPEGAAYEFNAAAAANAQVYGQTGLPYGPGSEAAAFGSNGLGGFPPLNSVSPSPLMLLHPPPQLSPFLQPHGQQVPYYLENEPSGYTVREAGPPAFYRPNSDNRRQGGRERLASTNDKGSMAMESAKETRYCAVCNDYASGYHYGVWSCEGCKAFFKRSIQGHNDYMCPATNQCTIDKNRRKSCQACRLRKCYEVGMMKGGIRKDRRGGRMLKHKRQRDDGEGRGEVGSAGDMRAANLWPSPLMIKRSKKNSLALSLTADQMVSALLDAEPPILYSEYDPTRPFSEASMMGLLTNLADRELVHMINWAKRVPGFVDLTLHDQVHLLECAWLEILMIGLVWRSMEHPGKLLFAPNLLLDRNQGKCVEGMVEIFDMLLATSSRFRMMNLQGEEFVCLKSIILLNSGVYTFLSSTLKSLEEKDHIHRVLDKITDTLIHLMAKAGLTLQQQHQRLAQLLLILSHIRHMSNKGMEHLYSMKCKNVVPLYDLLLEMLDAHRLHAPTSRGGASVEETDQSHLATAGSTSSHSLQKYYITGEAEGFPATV
Procedure: Selection of resistant clones by geneticin was performed at 1 mg/mL.
(§1) For strain cultures, cells were grown in phenol red containing Dulbecco’s modified Eagle medium, 1 g/L glucose, supplemented with 5% fetal calf serum (FCS), and 1% antibiotic (penicillin/streptomycin) in a 5% CO2 humidified atmosphere at 37°C.
Cells were seeded at a density of 5 × 10^4 cells/well in 96-well white opaque tissue culture plates (Becton Dickinson, Le Pont de Claix, France) in 150 μL test culture medium. Compounds to be tested were prepared 4× concentrated in the same medium and 50 μL was added per well 8 hr after seeding. Cells were incubated with compounds for 16 hr. Experiments were performed in quadruplicate and repeated twice. At the end of incubation, effector containing medium was removed and replaced by […], luciferin diffuses into the cell and produces a luminescent signal that is stable from 5 min on. […] The 96-well plate was then introduced in a microplate luminometer (Centro LB 960, Berthold Technologies), and intact living cell luminescence measured for 2 sec. Results are expressed as a percentage of maximum luciferase activity. […] GraphPad Software Inc., San Diego, CA, USA). […]

[2] = molecular target: T2, recombinant ER-α (hER-αLBD triple mutant) (Homo sapiens, UniProt P03372, C381S/C417S/C530S); settings: for RBA: ratio of IC50 values of E2 to competitor, E2 set at 100
T2 sequence (P03372 302-552 C381S/C417S/C530S): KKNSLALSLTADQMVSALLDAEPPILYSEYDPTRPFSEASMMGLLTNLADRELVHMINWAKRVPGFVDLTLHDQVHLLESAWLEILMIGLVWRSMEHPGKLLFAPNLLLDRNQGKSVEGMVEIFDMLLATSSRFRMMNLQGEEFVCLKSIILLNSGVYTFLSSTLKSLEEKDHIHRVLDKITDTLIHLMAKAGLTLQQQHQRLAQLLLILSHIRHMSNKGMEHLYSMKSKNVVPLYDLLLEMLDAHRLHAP

[3] = molecular target: T2, recombinant ER-α (hER-αLBD triple mutant); assay: biochemical
[4] = molecular target: T1, ER-α; type: cell-based
Procedure: Ten nanomoles of recombinant ER-αwere immobilized on 500 μL Ni-NTA-agarose phase. […] After rolling for 16 hr, flow-through and three 500-μL washings with WB were collected. Liganded receptor was then eluted with 3 × 500 μL EB, and eluate was heated at 65°C for 30 min in order to denature recombinant ER-α. Collected fractions were diluted 10-fold in culture medium before their relative estrogenic activity was evaluated with MELN reporter cells.
Flow-through (1.5 mL), washing, and elution fractions (500 μL) were collected. Precolumn and flow-through fractions were diluted 10-fold in culture medium before their relative activities were evaluated with MELN and HAhLP reporter cells. Washing and elution fractions were diluted 30-fold in culture medium to take into account the fact that they were 3× concentrated.

[5] = molecular target: T3, recombinant ER-α (Homo sapiens, UniProt P03372, C381S/C417S/C530S); type: cell-based; settings: compound at concentration giving about 80% MELN transactivation, 1-100 nM recombinant ER-α
T3 construct: hER-αLBD(Lys302 → Pro552); made in house; host or cells: Escherichia coli BL21 DE3
T3 sequence (P03372 302-552 C381S/C417S/C530S): T2 sequence (P03372 302-552 C381S/C417S/C530S)
Procedure: MELN cells were seeded in 96-well white opaque tissue culture plates as described above. In separate tubes, estrogenic compounds at nonsaturating concentration mediating about 80% MELN cell activity or 0.1% methanol extract for environmental samples, were prepared 4×-concentrated and preincubated with the same volume of 4×-concentrated purified recombinant ER-α(1–100 nM final concentration) in test culture medium at 4°C for 16 hr. Medium from MELN cell culture plates was then removed and replaced by 100 μL of test culture medium supplemented with the same volume of preincubation medium. After 6 hr incubation at 37°C, luciferase activity was determined.

[6] = molecular target: T4, AhR (Homo sapiens, UniProt P35869); assay: HAhLP cell luciferase assay (CYP1A1-Luc reporter in HeLa cells); type: cell-based; settings: read-out: EC50 value, induction of luciferase expression
T4 construct: The dioxin reporter cell line was obtained by transfecting HeLa cells with CYP1A1-Luc and pSG5-puro plasmids; endogenous in cells; host or cells: HAhLP (HeLa stably transfected with CYP1A1-Luc and pSG5-puro)
T4 sequence (P35869 11-848): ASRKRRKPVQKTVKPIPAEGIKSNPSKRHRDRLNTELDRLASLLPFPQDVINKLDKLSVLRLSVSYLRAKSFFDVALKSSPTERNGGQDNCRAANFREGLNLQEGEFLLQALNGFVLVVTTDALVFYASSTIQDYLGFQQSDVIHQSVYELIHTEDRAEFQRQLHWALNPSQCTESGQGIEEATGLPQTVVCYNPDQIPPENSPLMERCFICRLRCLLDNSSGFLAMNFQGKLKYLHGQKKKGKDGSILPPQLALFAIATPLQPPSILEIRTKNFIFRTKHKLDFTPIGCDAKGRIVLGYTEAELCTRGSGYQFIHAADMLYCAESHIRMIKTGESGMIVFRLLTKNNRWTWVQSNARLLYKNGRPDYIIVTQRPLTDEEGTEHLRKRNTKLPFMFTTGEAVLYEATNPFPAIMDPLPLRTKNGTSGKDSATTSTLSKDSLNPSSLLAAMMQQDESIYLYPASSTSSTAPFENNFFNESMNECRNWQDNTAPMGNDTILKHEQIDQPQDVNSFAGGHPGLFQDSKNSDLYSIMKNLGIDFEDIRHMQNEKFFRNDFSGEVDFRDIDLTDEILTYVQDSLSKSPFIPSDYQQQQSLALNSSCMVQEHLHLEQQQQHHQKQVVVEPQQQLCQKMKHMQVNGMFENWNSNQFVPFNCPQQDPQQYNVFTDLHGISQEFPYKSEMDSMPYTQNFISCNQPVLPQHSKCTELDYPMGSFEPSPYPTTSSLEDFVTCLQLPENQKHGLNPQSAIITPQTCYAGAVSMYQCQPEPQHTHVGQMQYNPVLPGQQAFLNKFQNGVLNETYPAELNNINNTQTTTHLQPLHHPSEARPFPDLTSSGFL
Procedure: The dioxin reporter cell line was obtained by transfecting HeLa cells with CYP1A1-Luc and pSG5-puro plasmids. Selection of resistant clones by puromycin was performed at 0.5 μg/mL. The most dioxin-responsive clone was denominated HAhLP 1.15. […].
as §1
Cells were seeded at a density of 5 × 10^4 cells/well in 96-well white opaque tissue culture plates (Becton Dickinson, Le Pont de Claix, France) in 150 μL test culture medium. Compounds to be tested were prepared 4× concentrated in the same medium and 50 μL was added per well 8 hr after seeding. Cells were incubated with compounds for 16 hr. Experiments were performed in quadruplicate and repeated twice. […] The 96-well plate was then introduced in a microplate luminometer (Centro LB 960, Berthold Technologies), and intact living cell luminescence measured for 2 sec. Results are expressed as a percentage of maximum luciferase activity. […]
Sediment and water methanol extracts were applied to MELN and HAhLP cells at 0.3% (vol/vol) maximal concentration in test culture medium, and luciferase transactivation was measured.

[7] = half-maximal induction in MELN cell line, 16 hr, read-out: EC50 ± SE
[8] = ratio of EC50 values of E2 to compound, E2 set at 100
[9] = compound applied at 3 nM, 10 nM E2 = 100
[10] = compound applied at 300 nM, 10 nM E2 = 100

## ClC(Cl)=C(c1ccc(Cl)cc1)c1ccccc1Cl [2,4′-DDE]
[1]; [7]
  EC50: 2.74 µM
[1]; [8]
  RTP: 0.00063

## ClC(Cl)=C(c1ccc(Cl)cc1)c1ccc(Cl)cc1 [4,4′-DDE]
[1]; [7]
  EC50: 25.6 µM
[1]; [8]
  RTP: 0.00007

## CCCCCCCCCc1ccc(O)cc1 [4-NP, 4n-nonylphenol]
[1]
  RTP: 0.00016
[1]; [7]
  EC50: 11 µM
[2]
  RBA: 0.11
[3]
  IC50: 5.6 µM

## CC(C)(c1ccc(O)cc1)c1ccc(O)cc1 [BPA, bisphenol A]
[4]
  Induction of luciferase activity, Elution: 70 ± 2%
  Induction of luciferase activity, Flow-through: 17 ± 2%
  Induction of luciferase activity, Precolumn: 70 ± 6%
  Induction of luciferase activity, Washing: 16 ± 2%

## O=S1(=O)OC(c2ccc(O)cc2)(c2ccc(O)cc2)c2ccccc21 [Phenol red, phenol red]
[1]
  RTP: 0.00005
[1]; [7]
  EC50: 36.9 µM
[4]
  Induction of luciferase activity, Elution: 40 ± 4%
  Induction of luciferase activity, Flow-through: 16 ± 2%
  Induction of luciferase activity, Precolumn: 36 ± 5%
  Induction of luciferase activity, Washing: 15 ± 3%

## C[C@H]1CCCC(=O)CCC/C=C/c2cc(O)cc(O)c2C(=O)O1 [Zearalenone, zearalenone]
[1]
  EC50: 0.000313 µM
[1]; [8]
  RTP: 5.62
[5]
  capture by recombinant ER-α / inhibition of transactivation: captured less efficiently than was E2

## Clc1cc2c(cc1Cl)Oc1cc(Cl)c(Cl)cc1O2 [dioxin]
[1]; MELN cells
  activation of MELN cells: able to partially activate MELN cells
[6]
  EC50: 0.0002 µM

## C[C@H]1CCC[C@H](O)CCCCCc2cc(O)cc(O)c2C(=O)O1 [α -Zearalanol, α-zearalanol]
[1]; [7]
  EC50: 0.000135 µM
[1]; [8]
  RTP: 13.0
[4]; [9]
  Induction of luciferase activity, Elution: 82 ± 6%
  Induction of luciferase activity, Flow-through: 17 ± 2%
  Induction of luciferase activity, Precolumn: 88 ± 2%
  Induction of luciferase activity, Washing: 16 ± 1%

## nonylphenol mixture [NPm]
[1]; [7]
  EC50: 0.339 µM
[1]; [8]
  RTP: 0.0051
[5]
  capture by recombinant ER-α / inhibition of transactivation: only a slight or no inhibition
[4]; [10]
  Induction of luciferase activity, Elution: 56 ± 2%
  Induction of luciferase activity, Flow-through: 17 ± 1%
  Induction of luciferase activity, Precolumn: 57 ± 4%
  Induction of luciferase activity, Washing: 16 ± 2%
[2]
  RBA: 0.32
[2]; read-out: IC50 ± SE, 0.75 pmol recombinant ER-α, 2 nM [3H]-E2, 500 μL, 4°C 16 hr
  IC50: 1.86 µM
